{"source": "patent US20060287520A1", "about": "“Synthesis of salinosporamide A and analogues thereof” (priority 2005, published 2006)", "origin": "cited, not measured here", "key": {"[1]": {"settings": "read-out: in vitro cytotoxicity IC50; background statement; cell line not given"}, "[2]": {"system": "20S proteasome", "settings": "times more potent than omuralide, same molecular target (20S proteasome)"}}, "data": [{"smiles": "C[C@@]12OC(=O)[C@]1([C@@H](O)[C@@H]1C=CCCC1)NC(=O)[C@@H]2CCCl", "note": "[Salinosporamide A]", "values": [{"measurement": "IC50", "setting": "[1]", "value": "~10", "unit": "nM"}, {"measurement": "potency relative to omuralide (2)", "setting": "[2]", "value": "approximately 35 times"}]}]}
